Reference: patent US20240329033A1, “MonoMac-1 Cells Expressing CD16 and CD163” (Temple University-Of The Commonwealth System of Higher …, priority 2016, published 2024)

B1: macrophage colony-stimulating factor (protein, UniProt P09603 33-554, looked up)
Macrophage colony-stimulating …: EEVSEYCSHMIGSGHLQSLQRLIDSQMETSCQITFEFVDQEQLKDPVCYLKKAFLLVQDIMEDTMRFRDNTPNAIAIVQLQELSLRLKSCFTKDYEEHDKACVRTFYETPLQLLEKVKNVFNETKNLLDKDWNIFSKNCNNSFAECSSQDVVTKPDCNCLYPKAIPSSDPASVSPHQPLAPSMAPVAGLTWEDSEGTEGSSLLPGEQPLHTVDPGSAKQRPPRSTCQSFEPPETPVVKDSTIGGSPQPRPSVGAFNPGMEDILDSAMGTNWVPEEASGEASEIPVPQGTELSPSRPGGGSMQTEPARPSNFLSASSPLPASAKGQQPADVTGTALPRVGPVRPTGQDWNHTPQKTDHPSALLRDPPEPGSPRISSLRPQGLSNPSTLSAQPQLSRSHSSGSVLPLGELEGRRSTRDRRSPAEPEGGPASEGAARPLPRFNSVPLTDTGHERQSEGSFSPQLQESVFHLLVPSVILVLLAVGGLLFYRWRRRSHQEPQRADSPLEQPEGSPLTQDDRQVELPV
B2: IFN γ: cytokine inducer of IDO enzyme induction (protein, UniProt P01579 24-161, looked up)
Interferon gamma: QDPYVKEAENLKKYFNAGHSDVADNGTLFLGILKNWKEESDRKIMQSQIVSFYFKLFKNFKDDQSIQKSVETIKEDMNVKFFNSNKKKRDDFEKLTNYSVTDLNVQRKAIHELIQVMAELSPAAKTGKRKRSQMLFRG

What was measured:
Type in all cases: cell-based, human
[1] = test system: MONO-MAC-1 cells; assay: Flow cytometry of CD163, CD16 and CD4 expression in differentiated MONO-MAC-1 cells; conditions: for expression of CD163+ / expression of CD16+: added for 24 hours to MonoMac-1 treated with PMA+DEX+MCSF+LPS; for expression of CD163+: FIG. 6A; for expression of CD16+: FIG. 6B
Protocol: MONO-MAC-1 cells were cultured at 37° C. in a humidified atmosphere containing 5% CO2 using RPM1 1640 medium supplemented with 10% heat-inactivated fetal bovine serum (FBS, Sigma) and 1% of stable glutamine, 1 mM sodium pyruvic acid and 1×MEM non-essential amino acids were added. Cells were seeded at a density of 0.5×10^6 cells/ml and were sub cultured upon reaching 1× 10^6 cells/ml. Medium was changed every 2 to 3 days. […] Data were analyzed with GraphPad Prism (version 6) soft-ware. Flow cytometric measurements were performed using four colors FACSCalibur (Becton Dickinson).

[2] = test system: MCP-1; assay: MCP-1 concentration in MonoMac-1 culture; conditions: FIG. 8
[3] = test system: tryptophan catabolism/IDO activity in MonoMac-1; assay: Tryptophan catabolism/IDO activity (kynurenine/tryptophan in cell culture supernatant) in MonoMac-1; conditions: for kynurenine/tryptophan ratio: cell culture supernatant, FIG. 7C
Excerpt: A major mechanism for inflammation and disease pathogenesis involves tryptophan catabolism via the kynurenine pathway. As such we evaluated cytokine inducers of IDO enzyme induction, a limiting step in the kynurenine pathway.
TNF α and IFN γ induce tryptophan catabolism/IDO activity as determined by increase in the kynurenine/tryptophan ratio in cell culture supernatant, in response to TNF alpha and IFN gamma treatment (FIG. 7).

[4] = induction: PMA 20 ng/ml ± LPS 10 ng/ml 3 days, then MCSF 5 ng/ml + DEX 200 ng/ml 4 days, FIG. 1A

| Molecule | MCP-1 concentration [2] | kynurenine/tryptophan ratio [3] | expression of CD163+ [1] | expression of CD16+ [1] | expression of CD163+ monocytes [1, 4] | also measured |
| --- | --- | --- | --- | --- | --- | --- |
| FC(F)(F)c1ccc(CNc2ccc(Cc3c[nH]c4ncc(Cl)cc34)cn2)cn1 [PLX3397, reference compound] |  |  |  |  |  | expression of CD16+ monocytes ([1]; antagonist 500 nM added after PMA/LPS 72 h and 4 days MCSF+DEX, FIG. 4A): reduction in expression; expression of CD4+ monocytes ([1]; antagonist 500 nM added after PMA/LPS 72 h and 4 days MCSF+DEX, FIG. 4B): reduction in expression; expression of CD163+ monocytes ([1]; antagonist 500 nM added after PMA/LPS 72 h and 4 days MCSF+DEX, FIG. 4C): significantly decreases expression |
| TNF α | increase MCP-1 | increase | further increase the expression | further increase the expression |  |  |
| lipopolysaccharide [LPS, reference compound] |  |  |  |  | has the most effect | percentage of CD16+CD163+ monocytes ([1]; induction: PMA ± LPS 3 days, then DEX+MCSF 4 days, FIG. 2, FIG. 3): required to have maximum effect |
| B1 |  |  |  |  | promotes expression |  |
| B2 | increase MCP-1 | increase | further increase the expression | further increase the expression |  | tryptophan concentration ([3]; added to the combination of PMA, LPS, MCSF and DEX, FIG. 7A): decreased; kynurenine concentration ([3]; added to the combination of PMA, LPS, MCSF and DEX, FIG. 7B): increased |
